Substitutions are numbered along the chain they refer to.
Assays:
Assay in all cases: two-electrode voltage clamp, Xenopus oocytes
Format in all cases: cell-based
Conditions in all cases: holding potential −80 mV, pH 7.5, agonist
[1] = target: T1, HarmOr14b/HarmOrco (Helicoverpa armigera, UniProt R4JUU3)
T1 construct: gene OR14b; full-length Or14b, pCS2+ vector, cRNA co-injected with Orco in Xenopus laevis oocytes; with Odorant receptor coreceptor
T1 sequence (R4JUU3 1-440): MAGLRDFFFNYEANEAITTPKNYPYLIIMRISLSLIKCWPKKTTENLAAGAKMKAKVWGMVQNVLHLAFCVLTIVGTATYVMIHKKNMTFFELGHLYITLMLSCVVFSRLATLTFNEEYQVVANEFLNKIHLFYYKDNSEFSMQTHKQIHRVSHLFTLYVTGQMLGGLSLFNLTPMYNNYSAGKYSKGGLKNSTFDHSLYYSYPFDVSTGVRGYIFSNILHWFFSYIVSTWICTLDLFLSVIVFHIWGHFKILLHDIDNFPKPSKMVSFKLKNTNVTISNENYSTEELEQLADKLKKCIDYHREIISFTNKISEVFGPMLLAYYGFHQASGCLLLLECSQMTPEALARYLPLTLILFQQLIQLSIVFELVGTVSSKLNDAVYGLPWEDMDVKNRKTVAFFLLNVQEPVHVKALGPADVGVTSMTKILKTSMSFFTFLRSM
T1 sequence (A0A075TD45 1-473 partner): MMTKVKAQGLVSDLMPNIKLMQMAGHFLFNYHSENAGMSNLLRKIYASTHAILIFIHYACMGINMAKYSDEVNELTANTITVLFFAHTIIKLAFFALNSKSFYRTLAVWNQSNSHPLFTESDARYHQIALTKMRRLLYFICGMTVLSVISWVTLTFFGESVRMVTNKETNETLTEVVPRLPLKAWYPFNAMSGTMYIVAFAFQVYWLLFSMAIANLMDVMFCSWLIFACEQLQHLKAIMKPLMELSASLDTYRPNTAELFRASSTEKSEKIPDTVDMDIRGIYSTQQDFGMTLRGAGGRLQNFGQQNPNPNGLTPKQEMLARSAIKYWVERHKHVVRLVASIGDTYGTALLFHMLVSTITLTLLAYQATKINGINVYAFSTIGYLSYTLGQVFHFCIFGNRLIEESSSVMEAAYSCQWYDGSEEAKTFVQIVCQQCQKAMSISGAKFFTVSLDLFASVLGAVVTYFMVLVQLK

[2] = target: T2, HassOr16/HassOrco (Helicoverpa assulta, UniProt C6K7C1)
T2 construct: full-length Or16, pCS2+ vector, cRNA co-injected with Orco in Xenopus laevis oocytes; with Odorant receptor coreceptor
T2 sequence (C6K7C1 1-422): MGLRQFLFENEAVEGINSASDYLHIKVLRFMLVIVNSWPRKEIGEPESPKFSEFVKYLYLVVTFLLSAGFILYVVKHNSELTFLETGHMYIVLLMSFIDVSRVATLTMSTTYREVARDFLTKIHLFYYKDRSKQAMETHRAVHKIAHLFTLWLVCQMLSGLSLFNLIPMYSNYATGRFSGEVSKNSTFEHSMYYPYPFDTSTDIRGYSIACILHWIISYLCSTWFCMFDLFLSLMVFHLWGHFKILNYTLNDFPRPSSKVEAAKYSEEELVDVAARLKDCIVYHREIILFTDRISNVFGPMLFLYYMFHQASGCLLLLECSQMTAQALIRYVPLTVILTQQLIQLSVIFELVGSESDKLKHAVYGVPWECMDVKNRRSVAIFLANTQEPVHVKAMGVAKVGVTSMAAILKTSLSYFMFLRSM
T2 sequence (A7UGE1 1-473 partner): T1 sequence (A0A075TD45 1-473 partner) with F55V

[3] = target: T3, HassOr6/HassOrco (Helicoverpa assulta, UniProt R4JLZ7)
T3 construct: gene OR6; full-length Or6, pCS2+ vector, cRNA co-injected with Orco in Xenopus laevis oocytes; with Odorant receptor coreceptor
T3 sequence (R4JLZ7 1-425): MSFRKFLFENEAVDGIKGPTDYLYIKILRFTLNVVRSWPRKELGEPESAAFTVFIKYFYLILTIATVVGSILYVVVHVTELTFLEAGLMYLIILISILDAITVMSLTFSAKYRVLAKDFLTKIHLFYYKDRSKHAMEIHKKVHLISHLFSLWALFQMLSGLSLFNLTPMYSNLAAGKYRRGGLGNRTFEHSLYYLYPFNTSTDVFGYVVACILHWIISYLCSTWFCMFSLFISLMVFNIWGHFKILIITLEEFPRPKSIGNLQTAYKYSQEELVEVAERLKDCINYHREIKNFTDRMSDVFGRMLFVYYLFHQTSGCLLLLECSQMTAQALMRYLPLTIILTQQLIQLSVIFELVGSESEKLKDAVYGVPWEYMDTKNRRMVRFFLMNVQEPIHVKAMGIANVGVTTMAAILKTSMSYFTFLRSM
T3 sequence (A7UGE1 1-473 partner): T1 sequence (A0A075TD45 1-473 partner) with F55V

SMILES	inward current at 10^-4 M [1]	inward current at 10^-4 M [2]	inward current at 10^-4 M [3]
CCCC/C=C\CCCCCCCC=O [Z9-14:Ald, (Z)−9-tetradecenal]	HarmOr14b is specifically tuned to Z9-14:Ald	HassOr16 is specific for Z9-14:Ald	–
CCCCCC/C=C\CCCCCCCC=O [Z9-16:Ald, (Z)−9-hexadecenal]	HarmOr14b is specifically tuned to Z9-14:Ald, and also weakly responds to Z9-16:Ald	–	–
CCCCCC/C=C\CCCCCCCCO [Z9-16:OH, (Z)−9-hexadecenol]	–	–	HassOr6 is mainly tuned to Z9-16:OH

— paper PMC5673308, “Two single-point mutations shift the ligand selectivity of a pheromone receptor between two closely related moth species” (eLife, 2017)
